For data set [1], the target named is WWP1 (Homo sapiens, UniProt Q9H0M0). Briefly: MicroScale Thermophoresis (MST) binding analysis of I3C towards WWP1. An excerpt: FIG. 10B provides the MST analysis of I3C towards WWP1. […] When I3C was superimposed onto the covalent inhibitor and WWP1 onto NEDD4-1, a model was generated showing I3C-bound WWP1 with the binding pocket formed by residues F577, L630, Y628, C629, N650, and Y656. […] The experiments of this example next confirmed this hypothesis by MicroScale Thermophoresis (MST) binding analysis.
Sequence of WWP1 (Q9H0M0 whole entry): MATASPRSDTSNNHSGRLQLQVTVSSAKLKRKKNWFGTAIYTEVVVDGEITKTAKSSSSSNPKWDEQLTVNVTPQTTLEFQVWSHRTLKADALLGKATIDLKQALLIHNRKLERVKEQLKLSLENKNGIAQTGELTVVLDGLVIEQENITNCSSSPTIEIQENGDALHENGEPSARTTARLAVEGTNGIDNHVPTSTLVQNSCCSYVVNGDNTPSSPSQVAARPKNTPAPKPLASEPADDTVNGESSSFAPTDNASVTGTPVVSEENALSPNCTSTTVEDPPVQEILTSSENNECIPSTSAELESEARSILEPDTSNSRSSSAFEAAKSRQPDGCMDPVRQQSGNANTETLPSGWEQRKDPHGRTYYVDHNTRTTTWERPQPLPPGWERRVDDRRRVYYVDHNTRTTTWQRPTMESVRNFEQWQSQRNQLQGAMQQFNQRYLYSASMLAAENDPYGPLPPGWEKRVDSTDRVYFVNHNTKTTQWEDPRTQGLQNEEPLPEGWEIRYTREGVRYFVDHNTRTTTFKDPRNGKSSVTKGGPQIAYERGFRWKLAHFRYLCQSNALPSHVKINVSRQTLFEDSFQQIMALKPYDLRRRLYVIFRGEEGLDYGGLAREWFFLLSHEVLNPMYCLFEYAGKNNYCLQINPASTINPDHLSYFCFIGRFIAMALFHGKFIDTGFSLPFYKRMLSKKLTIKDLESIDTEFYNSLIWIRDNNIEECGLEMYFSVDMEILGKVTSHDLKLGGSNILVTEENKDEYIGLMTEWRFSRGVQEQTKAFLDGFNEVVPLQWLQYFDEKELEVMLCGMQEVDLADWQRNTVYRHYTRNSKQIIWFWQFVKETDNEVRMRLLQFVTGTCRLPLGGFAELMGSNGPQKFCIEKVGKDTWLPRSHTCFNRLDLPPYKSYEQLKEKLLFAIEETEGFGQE

In data set [2] the test system is PTEN subcellular localization in DU145 cells. Briefly: Confocal immunofluorescence of PTEN subcellular localization in DU145 cells. It is filed as cell-based, human. To be noted: 20 μM I3C for 4 Days. As to the method: FIG. 10D provides a panel of micrographs showing the effects of I3C on PTEN subcellular localization in DU145 cells. DU145 cells treated with 20 μM I3C for 4 Days. Confocal images of DU145 cells treated with/without I3C were stained with DAPI and the indicated antibodies. Bar, 20 μm. Whether targeting WWP1/NEDD4-1, thereby enhancing PTEN dimerization and function, could offer a unique opportunity to treat MYC-driven cancers was investigated. […] As there is no small pharmacological inhibitor currently available to suppress/inhibit WWP1 activity, Indole-3-Carbinol (I3C), a potential WWP1 inhibitor, which suppresses the WWP1 activity through binding to its HECT domain, was used. First, to assess the on-target effects of I3C towards WWP1, Wwp1^-/- MEFs were used. […] Additionally, two independent PTEN stably knocked-down cells were generated. […] PC3 and DU145 cells stably expressing the indicated constructs were plated on coverslip. The following day, cells were washed with ice-cold PBS, fixed in 4% paraformaldehyde, permeabilized with 0.02% Triton X-100, and then blocked with PBS supplemented with 20% goat serum. Cells were incubated with anti-PTEN antibody (6H2.1, 1:100) from Cascade Bioscience, diluted in PBS containing 10% goat serum overnight and then with Alexa488-conjugated secondary antibody together with 1 μg/ml of DAPI for 1 hour. Images were acquired with a […] […]

The test system of data set [3] is PTEN/AKT pathway in DU145 cells (PTEN competent). Briefly: Western blot analysis of PTEN/AKT pathway in DU145 cells. The class given is cell-based, human. To be noted: different doses of I3C for 3 Days. As to the method:
FIG. 11B provides an analysis of effects of I3C on PTEN/AKT pathway in DU145 or PC3 cells by western blot analysis. Cells were treated with different doses of I3C for 3 Days, and followed by western blot analysis. Whether targeting WWP1/NEDD4-1, thereby enhancing PTEN dimerization and function, could offer a unique opportunity to treat MYC-driven cancers was investigated. […] As there is no small pharmacological inhibitor currently available to suppress/inhibit WWP1 activity, Indole-3-Carbinol (I3C), a potential WWP1 inhibitor, which suppresses the WWP1 activity through binding to its HECT domain, was used. First, to assess the on-target effects of I3C towards WWP1, Wwp1^−/− MEFs were used. […] Additionally, two independent PTEN stably knocked-down cells were generated. […] Western Blotting and Immunoprecipitation. For western blotting, cells were lysed in RIPA buffer (Boston BioProducts) supplemented with protease (Roche) and phosphatase (Roche) inhibitor. Proteins were separated on NuPAGE 4-12% Bis-Tris gradient gels (Invitrogen), transferred to polyvinylidine difluoride membranes (Immobilon P, Millipore) and the blots were probed with the indicated antibodies. For immunoprecipitation, PC3, 293T and MEF cells were transfected with the indicated expression vectors by using LIPOFECTAMIN 2000 (Life Technologies). 24 hours after transfection, cells were lysed in RIPA buffer with protease (Roche) and phosphatase (Roche) inhibitor. 500 μg of total lysates were pre-cleared for 30 minutes at 4° C., and then immunoprecipitated with anti-Myc (Cell Signaling Technology 9B11, 1:500), or anti-PTEN (Cell Signaling Technology 9559, 1:500) antibody overnight at 4° C. The Protein-A or Protein-G sepharose beads (GE Healthcare) were then added and incubated for another 2 hours. The immunoprecipitates were washed with RIPA buffer three times. In denaturing conditions, standard Laemmli-Buffer with 5% final concentration of β-mercaptoethanol was added to the samples, which were then boiled and separated on NuPAGE 4-12% Bis-Tris gradient gels (Invitrogen). […]

For data set [4], the system named is LNCaP cells (PTEN-null). Briefly: Cell growth, LNCaP cells. The class given is cell-based, human. The text has this:
Whether targeting WWP1/NEDD4-1, thereby enhancing PTEN dimerization and function, could offer a unique opportunity to treat MYC-driven cancers was investigated. […] As there is no small pharmacological inhibitor currently available to suppress/inhibit WWP1 activity, Indole-3-Carbinol (I3C), a potential WWP1 inhibitor, which suppresses the WWP1 activity through binding to its HECT domain, was used. First, to assess the on-target effects of I3C towards WWP1, Wwp1^−/− MEFs were used. […] Additionally, two independent PTEN stably knocked-down cells were generated.

The subject of data set [5] is Hi-Myc prostate spheres. Briefly: Prostate sphere forming ability of WT or Hi-Myc prostatic epithelial cells. The class given is cell-based, mouse. To be noted: Hi-Myc spheres at P1 passage, 10 μM I3C for 3 Day (low dose).
Data set [6] concerns AKT activation in prostate spheres. Briefly: Western blot analysis of prostate spheres at P1 passage. The class given is cell-based, mouse. To be noted: 20 μM I3C for 3 Days (low dose). As to the method: FIG. 11G is a Western blot analysis of prostate spheres at P1 passage treated with 20 μM I3C for 3 Days.
For data set [7] the following is noted: literature statement; cited from earlier work.

SMILES strings stand for the structures.

Turning to `OCc1c[nH]c2ccccc12` [I3C, indole-3-carbinol], in data set [1] (MST Kd for WWP1 versus literature Kd for NEDD4-1), the “binding affinity for WWP1 compared to NEDD4-1” value is “significantly stronger binding affinity”. In addition, in data set [1] (MST binding analysis, read-out: dissociation constant (Kd) of I3C binding to WWP1), the Kd (commonly a measure of binding affinity in units of concentration) is roughly 0.12 µM. The “PTEN plasma membrane localization” value in data set [2] is “induced its plasma membrane accumulation”. Moreover, in data set [3], the AKT activation result was “dose-dependent AKT suppression”, the PTEN protein level result was “without affecting PTEN protein level” and the apoptosis result is “concomitant induction of apoptosis”. Besides, the cell growth result in data set [4] is listed as “only modestly suppressed cell growth”. Besides, the prostate sphere-forming ability result in data set [5] was “drastically suppressed”. In addition, in data set [6] (Hi-Myc prostate spheres), the “AKT activation driven by MYC expression” value was “abolished AKT activation” and the “apoptosis in Hi-Myc prostate spheres” value was “concomitant apoptosis”. The “AKT activation and apoptosis in WT prostate spheres” value in data set [6] (WT prostate spheres) is listed as “not in WT prostate spheres”. The toxicity entry in data set [7] was “negligible toxicity”.
